The values that follow come from patent EP2832223A1, “HERBICIDAL COMPOSITION” (Ishihara Sangyo Kaisha, Ltd., priority 2012, dated 2013).

Holding throughout (assay type): in vivo
Assay [1] concerns Japanese millet (Echinochloa utilis Ohwi et Yabuno). In words: Test Example 5: pot test, soil treatment, visual growth inhibition. Conditions: soil treatment, 28th day after treatment, read-out: Growth inhibition rate (%) of Japanese millet Measured value. On the procedure:
Upland field soil was put into a 1/300,000 ha pot, and seeds of Japanese millet (Echinochloa utilis Ohwi et Yabuno) were sown. On the next day, predetermined amounts of ONEHOPE NYUZAI (tradename), Click (tradename) and SC formulation containing topramezone as an active ingredient (tradename: Clio, manufactured by BASF) were diluted with water (in an amount corresponding to 1,000 L/ha) and applied for soil treatment by a small sprayer.
On the 28th day after treatment, the state of growth of the Japanese millet was visually observed to determine the growth inhibition rate (%). The growth inhibition rate (%) (measured value) and the growth inhibition rate (%) calculated in the same manner as in the above Test Example 1 are shown in Table 5.

Assay [2] relates to korean lespedeza (Kummerowia stipulacea (Maxim.) Makino). In words: Test Example 6: pot test, soil treatment, visual growth inhibition. Conditions: soil treatment, 14th day after treatment, read-out: Growth inhibition rate (%) of korean lespedeza Measured value. On the procedure:
Upland field soil was put into a 1/300,000 ha pot, and seeds of korean lespedeza (Kummerowia stipulacea (Maxim.) Makino) were sown. On the next day, predetermined amounts of ONEHOPE NYUZAI (tradename), Click (tradename), Mikado (tradename) and a wettable powder containing bicyclopyrone prepared in accordance with a conventional formulation method were diluted with water (in an amount corresponding to 1,000 L/ha) and applied for soil treatment by a small sprayer.
On the 14th day after treatment, the state of growth of the korean lespedeza was visually observed to determine the growth inhibition rate (%). The growth inhibition rate (%) (measured value) and the growth inhibition rate (%) calculated in the same manner as in the above Test Example 1 are shown in Table 6.

Assay [3] relates to rostrate sesbania (Sesbania rostrata Bremek. & Oberm.). Nature of the assay: Test Example 8: pot test, soil treatment, visual growth inhibition. Conditions: soil treatment, 28th day after treatment, read-out: Growth inhibition rate (%) of rostrate sesbania Measured value. The procedure:
Upland field soil was put into a 1/300,000 ha pot, and seeds of rostrate sesbania (Sesbania rostrata Bremek. & Oberm.) were sown. On the next day, predetermined amounts of ONEHOPE NYUZAI (tradename), Click (tradename), Spectrum (tradename) and Clio (tradename) were diluted with water (in an amount corresponding to 1,000 L/ha) and applied for soil treatment by a small sprayer.
On the 28th day after treatment, the state of growth of the rostrate sesbania was visually observed to determine the growth inhibition rate (%). The growth inhibition rate (%) (measured value) and the growth inhibition rate (%) calculated in the same manner as in the above Test Example 1 are shown in Table 8.

Assay [4] concerns prickly sida (Sida spinosa L.). Nature of the assay: Test Example 10: pot test, soil treatment, visual growth inhibition. Conditions: soil treatment, 28th day after treatment, read-out: Growth inhibition rate (%) of prickly sida Measured value. On the procedure:
Upland field soil was put into a 1/300,000 ha pot, and seeds of prickly sida (Sida spinosa L.) were sown. On the next day, predetermined amounts of ONEHOPE NYUZAI (tradename), Click (tradename), Spectrum (tradename), Callisto (tradename) and Clio (tradename) were diluted with water (in an amount corresponding to 1,000 L/ha) and applied for soil treatment by a small sprayer.
On the 28th day after treatment, the state of growth of the prickly sida was visually observed to determine the growth inhibition rate (%). The growth inhibition rate (%) (measured value) and the growth inhibition rate (%) calculated in the same manner as in the above Test Example 1 are shown in Table 10.

Assay [5] has as its system guinea grass (Panicum maximum Jacq.). In words: Test Example 15: pot test, soil and foliar treatment, visual growth inhibition. Conditions: Megathyrsus maximus, 31st day after treatment, read-out: Growth inhibition rate (%) of guinea grass Measured value. The procedure: Upland field soil was put into a 1/1,000,000 ha pot, and seeds of guinea grass (Panicum maximum Jacq.) were sown. When the guinea grass reached 5.2 to 6.0-leaf stage, seeds of guinea grass were further sown in the same pot assuming conditions such that weeds would later grow. On the next day, predetermined amounts of ONEHOPE NYUZAI (tradename), Click (tradename), Spectrum (tradename) and Cadou (tradename) were diluted with water in an amount corresponding to 300 L/ha and applied for soil treatment and for foliar treatment by a small sprayer.
On the 31 st day after treatment, the state of growth of the guinea grass was visually observed to determine the growth inhibition rate (%). The growth inhibition rate (%) (measured value) and the growth inhibition rate (%) calculated in the same manner as in the above Test Example 1 are shown in Table 15.

Assay [6] relates to velvetleaf (Abutilon theophrasti Medic.). Nature of the assay: Test Example 16: pot test, soil and foliar treatment, visual growth inhibition. Conditions: soil treatment and foliar treatment, 29th day after treatment, read-out: Growth inhibition rate (%) of velvetleaf Measured value. The source says:
Upland field soil was put into a 1/1,000,000 ha pot, and seeds of velvetleaf (Abutilon theophrasti Medic.) were sown. When the velvetleaf reached 4.0 to 4.3-leaf stage, seeds of velvetleaf were further sown in the same pot assuming conditions such that weeds would later grow. Three days later, predetermined amounts of ONEHOPE NYUZAI (tradename), Click (tradename), Callisto (tradename), Mikado (tradename), a wettable powder containing bicyclopyrone as an active ingredient and Clio (tradename) were diluted with water in an amount corresponding to 300 L/ha and applied for soil treatment and for foliar treatment by a small sprayer.
On the 29th day after treatment, the state of growth of the velvetleaf was visually observed to determine the growth inhibition rate (%). The growth inhibition rate (%) (measured value) and the growth inhibition rate (%) calculated in the same manner as in the above Test Example 1 are shown in Table 16.

The test system of assay [7] is guinea grass (Panicum maximum Jacq.). Nature of the assay: Test Example 17: pot test, soil and foliar treatment, visual growth inhibition. Conditions: Megathyrsus maximus, 29th day after treatment, read-out: Growth inhibition rate (%) of guinea grass Measured value. The procedure: Upland field soil was put into a 1/1,000,000 ha pot, and seeds of guinea grass (Panicum maximum Jacq.) were sown. When the guinea grass reached 5.2 to 6.0-leaf stage, seeds of guinea grass were further sown in the same pot assuming conditions such that weeds would later grow. Three days later, predetermined amounts of ONEHOPE NYUZAI (tradename), Click (tradename) and Spectrum (tradename) were diluted with water in an amount corresponding to 300 L/ha and applied for soil treatment and for foliar treatment by a small sprayer.
On the 29th day after treatment, the state of growth of the guinea grass was visually observed to determine the growth inhibition rate (%). The growth inhibition rate (%) (measured value) and the growth inhibition rate (%) calculated in the same manner as in the above Test Example 1 are shown in Table 17.

For the molecule `COc1cc(OC)nc(NC(=O)NS(=O)(=O)c2ncccc2C(=O)N(C)C)n1` [Nicosulfuron, 2-(4,6-dimethoxypyrimidin-2-ylcarbamoylsulfamoyl)-N,N-dimethylnicotinamide], the values for the inhibition at 30 g/ha in assay [1] (30 g/ha), in assay [6] (30 g/ha) and in assay [7] (30 g/ha) were 40%, 0% and 38%, respectively. Further, the inhibition at 10 g/ha stood at 0% in assay [2] (10 g/ha), 0% in assay [3] (10 g/ha) and 20% in assay [4] (10 g/ha). The inhibition at 100 g/ha in assay [2] (100 g/ha) came to 0%; in assay [4] (100 g/ha), 40%. In addition, in assay [5] (20 g/ha), the inhibition at 20 g/ha was 46%. In addition, the inhibition at 60 g/ha in assay [5] (60 g/ha) was determined as 83%.

Take `CCNc1nc(Cl)nc(NC(C)(C)C)n1` [Terbuthylazine, N^2-tert-butyl-6-chloro-N^4-ethyl-1,3,5-triazine-2,4-diamine]: the values for the inhibition at 500 g/ha in assay [1] (500 g/ha), in assay [6] (500 g/ha) and in assay [7] (500 g/ha) were 50%, 15% and 0%, respectively. Moreover, the inhibition at 200 g/ha was found to be 10% in assay [2] (200 g/ha) and 30% in assay [4] (200 g/ha). Also, the inhibition at 2000 g/ha came out at 25% in assay [2] (2000 g/ha), 0% in assay [3] (2000 g/ha) and 80% in assay [4] (2000 g/ha). For the same molecule, the inhibition at 400 g/ha in assay [5] (400 g/ha) was 5%. The inhibition at 1200 g/ha in assay [5] (1200 g/ha) was 23%. Besides, in assay [6] (1000 g/ha), the inhibition at 1000 g/ha turned out to be 18%.

The term inhibition denotes the percentage by which the read-out fell short of the control.
